Where a name gives a salt, the structure may show the parent alone. Read-outs that look alike come from different tables or passages of the source.
Experiments:
male Wistar rats [1] = assay: ICSS thresholds after intra-ventral tegmental area LY314582; format: in vivo, rat
Description: All injections were administered bilaterally in a volume of 0.5 μl/side given over 66 sec through 17 mm injectors. The injectors were connected to calibrated polyethylene-10 tubing preloaded with drug solution and protruded 3 mm below the ends of the cannulas into the VTA. After infusion, the injectors were kept in place for an additional 60 sec to allow for drug diffusion. Injectors were then removed and replaced with 14 mm wire stylets, and the animals then placed directly into the ICSS testing apparatus. Injections were made using a Harvard microinfusion pump (Model 975).
After stable baseline ICSS responding was achieved (≦10% variation in threshold for 3 consecutive days), rats (n=15) with bilateral cannulas directed toward the VTA were allocated to two groups such that there were no differences in mean baseline reward thresholds or body weight between groups. […] Animals again were tested in the ICSS paradigm each day for seven days prior to drug treatment. […] There was a minimum 48 h interval between each injection, during which ICSS thresholds continued to be measured, to allow thresholds to return to baseline levels before further drug tests. At the conclusion of the experiment, all animals were anaesthetized and their brains removed and immediately placed on ice. The brains were cut in 50 μm sections, and placements of the injectors and the electrodes were examined (see FIG. 1 for histological verification of injection sites). Only those rats with injection tips located within the VTA were included in statistical analyses.

drug-naïve rats = conditions: previous studies (Harrison et al., 2002; Macey et al., 2001); cited from earlier work
male Wistar rats [2] = test system: male Wistar rats
Excerpt: (§1) Animals were trained to respond according to a modification of the discrete-trial current-threshold procedure of Kornetsky and Esposito (Fed Proc 38:2473-2476, 1979), which has been described in detail previously (Markou and Koob, 1992 Physiol Behav 51:111-119). Briefly, a trial was initiated by the delivery of a non-contingent electrical stimulus. […] The current intensity delivered was adjusted for each animal and typically ranged from 50 to 200 μA. […] After a variable inter-trial interval (7.5-12.5 sec, average of 10 sec), another trial was initiated with the delivery of a non-contingent electrical stimulus. […] Responding during the inter-trial interval delayed the onset of the next trial by 12.5 sec. Current levels were varied in alternating descending and ascending series. A set of three trials was presented for each current intensity. Current intensities were altered in 5 μA steps. In each testing session, four alternating descending-ascending series were presented. […] The overall threshold of the session was defined as the mean of the thresholds for the four individual series. Each testing session was ˜30 min in duration. The latency between the onset of the non-contingent stimulus and a positive response was recorded as the response latency. The response latency for each test session was defined as the mean response latency of all trials during which a positive response occurred. After establishment of stable ICSS reward thresholds, rats were tested in the ICSS procedure once daily except for the spontaneous nicotine withdrawal experiment when rats were tested at time-points according to the experimental design.
Systemic administration experiments. These experiments investigated whether nicotine withdrawal, as measured by elevations in ICSS thresholds, could be precipitated in nicotine-treated rats by systemic administration of an agonist at mGluII receptors (LY314582), an agonist at GABAB receptors (CGP44532), or antagonists at mGlu5 (MPEP), NMDA (MK-801) or AMPA/Kainate (NBQX) glutamate receptors. For each drug tested, rats were trained in the ICSS paradigm until stable baseline responding was achieved, defined as ≦10% variation in thresholds for 3 consecutive days and requiring approximately 14 days of daily testing. […] One group was then prepared with subcutaneous osmotic mini-pumps delivering vehicle and the second group with mini-pumps delivering 9 mg/kg/day nicotine hydrogen tartrate (3.16 mg/kg/day nicotine free base). There was a minimum seven-day interval after mini-pump implantation, during which ICSS reward thresholds continued to be measured daily, before the effect of any systemically administered drug on reward thresholds was evaluated.

Wistar rats = assay: Nicotine self-administration under a fixed ratio schedule (LY341495, LY341495 and MPEP)
male Wistar rats [3] = assay: ICSS thresholds during spontaneous nicotine withdrawal; format: in vivo, rat; conditions: for ICSS reward thresholds: 1 mg/kg, 30 min before the 18 h time-point
Excerpt: as §1
Osmotic mini-pumps were surgically removed from nicotine-treated rats (n=15) (defined as rats having been prepared with mini-pumps delivering 3.16 mg/kg/day nicotine free-base for at least seven days) or corresponding control rats (n=17; rats prepared with vehicle-containing mini-pumps). All rats were then tested in the ICSS procedure at 12, 18, 24, 36, 48 and 72 hr after the removal of osmotic mini-pumps. These time points were chosen based on the time course of threshold elevations previously observed during spontaneous nicotine withdrawal after removal of nicotine-delivering osmotic mini-pumps (Harrison et al., 2001, Neuropsychopharmacology 25:55-71; K.L.). […] Thirty min before being tested at the 18 h time-point, one group of nicotine withdrawing and one group of control rats were injected with LY341495 (1 mg/kg); the remaining rats were injected with vehicle.

male Wistar rats [4] = conditions: 5 mg/kg fluoxetine alone (Harrison et al. 2001); cited from earlier work
male Wistar rats [5] = assay: Brain stimulation reward (ICSS) under baseline conditions, paroxetine and p-MPPI; format: in vivo, rat
Description: Male Wistar rats (Charles River, Hollister, Calif.) (300-320 g at the start of the experiments) were housed in pairs in a temperature and humidity controlled environment with a 12 hr light/dark cycle. Food and water were available ad libitum. A different set of subjects was used for each experiment. All subjects were treated in accordance with the National Institutes of Health “Guide for the Care and Use of Laboratory Animals,” and the animal facilities and the experimental protocols were in accordance with the Association for the Assessment and Accreditation of Laboratory Animal Care. Most of the behavioral testing was conducted during the light phase of the subjects' light/dark cycle, unless otherwise dictated by the experimental design due to time-course assessment of behavioral parameters. Apparatus The experimental apparatus consisted of 16 Plexiglas chambers (30.5×30×17 cm) (Med Associates Inc., St. Albans, Vt.) encased in sound-attenuating boxes (San Diego Instruments, San Diego, Calif.). Each operant chamber consisted of a stainless steel grid floor and a metal wheel manipulandum located on one wall, which required a 0.2 N force to rotate it a quarter turn. Gold-contact swivel commutators and bipolar leads connected the animals in the stimulation circuit (Plastics One, Roanoke, Va.). Brain stimulation was administered by constant current stimulators (Stimtek 1200, San Diego Instruments, San Diego, Calif.). […] During a 2 sec period immediately following a positive response, further responses were recorded as extra responses but had no consequence. If no response occurred during the 7.5 sec limited hold period a negative response was recorded. […] Thus, during each session, four current-thresholds were recorded and the mean of these values was taken as the current-threshold for each subject for each test session. Response Latency: The latency between the onset of the non-contingent stimulus and a positive response was recorded as the response latency. […]

male Wistar rats [6] = assay: Reward deficits during amphetamine withdrawal (ICSS thresholds, response latencies, body weight); conditions: for response latencies during withdrawal: 36 hr after the final amphetamine or saline injection; for return to baseline reward threshold levels before the amphetamine-withdrawing non-drug-treated rats: acute treatment prior to the 36 hr test, paroxetine 1.25 mg/kg, p-MPPI 3 mg/kg; for body weight during amphetamine withdrawal: amphetamine-exposed rats; for reward thresholds: saline-exposed animals, paroxetine 1.25 mg/kg or p-MPPI 3 mg/kg
Description: Male Wistar rats (Charles River, Hollister, Calif.) (300-320 g at the start of the experiments) were housed in pairs in a temperature and humidity controlled environment with a 12 hr light/dark cycle. Food and water were available ad libitum. A different set of subjects was used for each experiment. All subjects were treated in accordance with the National Institutes of Health “Guide for the Care and Use of Laboratory Animals,” and the animal facilities and the experimental protocols were in accordance with the Association for the Assessment and Accreditation of Laboratory Animal Care. Most of the behavioral testing was conducted during the light phase of the subjects' light/dark cycle, unless otherwise dictated by the experimental design due to time-course assessment of behavioral parameters. Apparatus The experimental apparatus consisted of 16 Plexiglas chambers (30.5×30×17 cm) (Med Associates Inc., St. Albans, Vt.) encased in sound-attenuating boxes (San Diego Instruments, San Diego, Calif.). Each operant chamber consisted of a stainless steel grid floor and a metal wheel manipulandum located on one wall, which required a 0.2 N force to rotate it a quarter turn. Gold-contact swivel commutators and bipolar leads connected the animals in the stimulation circuit (Plastics One, Roanoke, Va.). Brain stimulation was administered by constant current stimulators (Stimtek 1200, San Diego Instruments, San Diego, Calif.). Surgical Procedure The rats were prepared with 11 mm stainless steel bipolar electrodes (Plastics One; diameter=0.25 mm) in the posterior lateral hypothalamus (AP −0.5 mm from bregma; L±1.7 mm; DV −8.3 mm from dura, with the incisor bar set at 5 mm above the interaural line; Pellegrino et al. 1979 under halothane anaesthesia (1-1.5% halothane/oxygen mixture). Subjects were allowed to recover for at least seven days before any behavioral testing. Half of the electrodes were positioned on the right hemisphere and the other half on the left hemisphere to counterbalance possible brain asymmetries. […] The subjects were initially trained to turn the wheel manipulandum on a fixed ratio 1 schedule of reinforcement. […] The current intensity delivered was adjusted for each animal and typically ranged from 100 to 200 μA. After successful familiarization with this procedure (2 sessions of 100 reinforcers in less than 20 minutes), the rats were gradually trained on a discrete-trial, current-threshold procedure. At the start of each trial rats received a non-contingent electrical stimulus. During the following 7.5 sec, the limited hold, if the subjects responded by turning the wheel manipulandum a quarter turn (positive response) they received a second, contingent stimulus identical to the previous non-contingent stimulus. During a 2 sec period immediately following a positive response, further responses were recorded as extra responses but had no consequence. If no response occurred during the 7.5 sec limited hold period a negative response was recorded. […] Stimulation intensities were varied according to the classical psychophysical method of limits. The subjects received four alternating series of ascending and descending current intensities starting with a descending series. Within each series the stimulus intensity was altered by 5 μA steps between each set of trials (three trials per set). After training in the above procedure, rats were tested until stable baseline thresholds had been achieved L+10% over a 5-day period). […] During the ascending series, the reverse situation defined the threshold. Thus, during each session, four current-thresholds were recorded and the mean of these values was taken as the current-threshold for each subject for each test session. Response Latency: The latency between the onset of the non-contingent stimulus and a positive response was recorded as the response latency. The response latency for each test session was defined as the mean response latency of all trials during which a positive response occurred. […]

rats = conditions: single high dose 120-300 mg/kg orally, rats (Ryan et al. 2001); cited from earlier work
[7] = Lemberger et al. 1985; Prakash and Foster 1999; cited from earlier work

Structure (SMILES): NC1(C(=O)O)CCC2C(C(=O)O)C21 (racemic) [LY314582, 2-aminobicyclo(3.1.0)hexane-2,6-dicarboxylic acid]
- ICSS response Latencies (male Wistar rats [1]; after VTA administration, nicotine-treated or control rats): had no effect on response latencies
- ICSS reward thresholds (male Wistar rats [1]; bilateral microinfusion into the VTA, 10-100 ng/side): significantly elevated reward thresholds in nicotine-treated but not control rats
- ICSS reward thresholds (male Wistar rats [1]; intra-VTA 50 and 100 ng/side): sufficient to elevate reward thresholds in nicotine-treated rats without affecting thresholds in control rats
- dose that elevated ICSS thresholds in drug-naïve rats (drug-naïve rats): ≥ 10 mg/kg
- ICSS reward thresholds (male Wistar rats [2]; 7.5 mg/kg i.p., nicotine-treated rats, p<0.01): elevated reward thresholds in nicotine-treated rats compared to vehicle treatment
- ICSS reward thresholds (male Wistar rats [2]; 2.5-7.5 mg/kg intraperitoneal, nicotine-treated and control rats): elevated ICSS reward thresholds in nicotine-treated but not control rats
- ICSS response Latencies (male Wistar rats [2]; LY314582 2.5-7.5 mg/kg i.p., any dose tested): had no effect on response latencies in nicotine-treated or control rats

Structure (SMILES): N[C@](CC1c2ccccc2Oc2ccccc21)(C(=O)O)[C@H]1C[C@@H]1C(=O)O [LY341495, 2S-2-amino-2-(1S,2S-2-carboxycyclopropan-1-yl)-3-(xanth-9-yl)propionic acid]
- nicotine responding (Wistar rats; 0.1, 0.5, 3 and 5 mg/kg LY341495): significantly decreased nicotine responding
- decrease of nicotine self-administration (Wistar rats; LY341495 0.5 mg/kg): approximately 35%
- nicotine self-administration (Wistar rats; LY341495 0.5 mg/kg alone, p<0.05): significantly decreased nicotine self-administration
- ICSS reward thresholds (male Wistar rats [3]; control rats): without affecting thresholds in control rats
- ICSS reward thresholds (male Wistar rats [3]; nicotine-withdrawing rats, p<0.001): significantly attenuated the elevations in reward thresholds in nicotine-withdrawing rats
- ICSS response Latencies (male Wistar rats [3]; LY341495 1 mg/kg): had no effect on response latencies at any time-point after injection

Structure (SMILES): CNCCC(Oc1ccc(C(F)(F)F)cc1)c1ccccc1 (stereo not drawn) [fluoxetine]
- duration of amphetamine withdrawal reward deficits (male Wistar rats [4]): reduced the duration of the reward deficits

Structure (SMILES): COc1ccccc1N1CCN(CCN(C(=O)c2ccc(I)cc2)c2ccccn2)CC1.Cl [p-MPPI]
- reward thresholds (male Wistar rats [5]; p-MPPI 1, 3, 10 mg/kg alone): had no effect on reward thresholds
- response latencies (male Wistar rats [5]; p-MPPI 1-10 mg/kg (Example 4.2)): had no effect on response latencies
- response latencies during withdrawal (male Wistar rats [6]): had no effect on response latencies
- return to baseline reward threshold levels before the amphetamine-withdrawing non-drug-treated rats (male Wistar rats [6]): 24 h
- body weight during amphetamine withdrawal (male Wistar rats [6]): appeared to gain weight similarly to vehicle-treated rats
- reward thresholds (male Wistar rats [6]): Neither paroxetine (FIG. 4A & 4D) nor p-MPPI (FIG. 20B and 20E) had an effect on thresholds of saline-exposed animals

Structure (SMILES): Fc1ccc([C@@H]2CCNC[C@H]2COc2ccc3c(c2)OCO3)cc1 [paroxetine, Paroxetine hydrochloride]
- body weight and food consumption (rats): produces a reduction in body weight and food consumption
- brain reward thresholds (male Wistar rats [5]; paroxetine 1.25-10 mg/kg, 120 min before test): had no statistically significant effect on thresholds
- response latencies during withdrawal (male Wistar rats [6]): significantly slower than those of either vehicle or p-MPPI treated rats
- return to baseline reward threshold levels before the amphetamine-withdrawing non-drug-treated rats (male Wistar rats [6]): 24 h
- body weight during amphetamine withdrawal (male Wistar rats [6]): did not gain weight during withdrawal
- reward thresholds (male Wistar rats [6]): Neither paroxetine (FIG. 4A & 4D) nor p-MPPI (FIG. 20B and 20E) had an effect on thresholds of saline-exposed animals
- half-life [7]: approximately 24 hours

Reference: patent US8354447B2, “mGLU receptors antagonists for treating disorders associated with mGLU receptors including addiction and depression” (The Scripps Research Institute, priority 2002, dated 2013)
